According to BindingDB's records for doi:10.1016/j.bmcl.2013.01.017 (Vanderbilt University Medical Center, 2013):

Target: T1, Muscarinic acetylcholine receptor M1 (Homo sapiens, UniProt P11229)
T1 sequence (P11229 whole entry): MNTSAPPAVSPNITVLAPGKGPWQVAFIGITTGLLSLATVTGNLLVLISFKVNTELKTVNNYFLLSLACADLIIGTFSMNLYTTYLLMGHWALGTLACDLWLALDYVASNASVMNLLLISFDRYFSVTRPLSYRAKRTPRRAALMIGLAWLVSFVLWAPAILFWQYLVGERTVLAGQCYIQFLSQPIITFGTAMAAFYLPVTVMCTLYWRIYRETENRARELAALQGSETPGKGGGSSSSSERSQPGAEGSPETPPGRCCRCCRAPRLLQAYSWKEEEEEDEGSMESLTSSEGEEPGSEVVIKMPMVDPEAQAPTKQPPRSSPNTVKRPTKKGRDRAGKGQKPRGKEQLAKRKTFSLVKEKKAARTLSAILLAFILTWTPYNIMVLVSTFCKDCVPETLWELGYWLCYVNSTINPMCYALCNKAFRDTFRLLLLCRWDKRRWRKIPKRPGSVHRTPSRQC
Assay: Positive allosteric modulation of human muscarinic M1 receptor

Cn1cc(-c2ccc(CN3C(=O)C4(CCN(C5CCCC5)C4)c4ccccc43)c(F)c2)cn1 (stereo unspecified)
EC50: > 10 µM
